Source: US20230085307A1, “PYRIDAZINONE COMPOUND AND HERBICIDE” (NISSAN CHEMICAL CORPORATION, priority 2019, published 2023)

Tests used:
[1] = tested on: southern crabgrass; test: Test Example 4: herbicidal effect by soil treatment (Table 19, symbol F); assay type: in vivo, southern crabgrass (Digitaria ciliaris); details: amount of applied herbicide 320 g/ha
How it was run: (§1)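 Herbicidal effect was rated 3 weeks after treatment, using the scoring criteria of an earlier test. The compound, formulated as an emulsion and diluted in water to a set herbicide amount, had been sprayed uniformly on soil over freshly sown seeds. Growth took place in a greenhouse at 25° C. to 30° C.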

[2] = tested on: redroot pigweed; test: Test Example 4: herbicidal effect by soil treatment (Table 19, symbol N); assay type: in vivo, redroot pigweed (Amaranthus retroflexus); details: amount of applied herbicide 320 g/ha
How it was run: as §1

[3] = tested on: oval-leafed pondweed; test: Test Example 1: herbicidal activity, application before weed generation under submerged conditions (Table 16, symbol C); assay type: in vivo, oval-leafed pondweed (Monochoria vaginalis); details: amount of applied herbicide 320 g/ha
How it was run: (§2)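 Alluvial soil was flooded to 4 cm depth, weed seeds were sown mixed and 2.5-leaf rice seedlings were transplanted. On sowing day, the compound's emulsion, diluted in water to a set dose, was applied to the water surface. Plants grew at 25–30 °C and were scored 0–5 after three weeks.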

[4] = tested on: chickweed; test: Test Example 5: herbicidal effect by foliage application, plastic box (Table 20, symbol P); assay type: in vivo, common chickweed (Stellaria media); details: foliage application, 320 g/ha, three weeks after application
How it was run: (§3)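 Foliar spray test: emulsion formulation diluted in water to a set application rate, sprayed onto 14-day-old plants raised in diluvial soil at 25° C to 30° C under glass. Both herbicidal effect and crop effect rated visually three weeks later.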

[5] = tested on: blackgrass; test: Test Example 5: herbicidal effect by foliage application, plastic box (Table 20, symbol J); assay type: in vivo, blackgrass (Alopecurus myosuroides); details: foliage application, 320 g/ha, three weeks after application
How it was run: as §3

[6] = tested on: green foxtail; test: Test Example 4: herbicidal effect by soil treatment (Table 19, symbol G); assay type: in vivo, green foxtail (Setaria viridis); details: amount of applied herbicide 320 g/ha
How it was run: as §1

[7] = tested on: barnyard grass; test: Test Example 4: herbicidal effect by soil treatment (Table 19, symbol H); assay type: in vivo, barnyard grass (Echinochloa crus-galli); details: amount of applied herbicide 320 g/ha
How it was run: as §1

[8] = tested on: wild oat; test: Test Example 4: herbicidal effect by soil treatment (Table 19, symbol I); assay type: in vivo, wild oat (Avena fatua); details: amount of applied herbicide 320 g/ha
How it was run: as §1

[9] = tested on: velvetleaf; test: Test Example 4: herbicidal effect by soil treatment (Table 19, symbol M); assay type: in vivo, velvetleaf (Abutilon theophrasti); details: amount of applied herbicide 320 g/ha
How it was run: as §1

[10] = tested on: green foxtail; test: Test Example 5: herbicidal effect by foliage application, plastic box (Table 20, symbol G); assay type: in vivo, green foxtail (Setaria viridis); details: foliage application, 320 g/ha, three weeks after application
How it was run: as §3

[11] = tested on: barnyard grass; test: Test Example 3: herbicidal effect by foliage application, Wagner pot (Table 18, symbol H); assay type: in vivo, barnyard grass (Echinochloa crus-galli); details: 320 g/ha
How it was run: (§4)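 Plants were sown in alluvial soil held under 0.1–0.5 cm standing water and grown 14 days in a greenhouse at 25–30 °C. An emulsifiable formulation, water-diluted to the set dose, was then sprayed onto the foliage, and effects were scored three weeks later using previously defined criteria.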

[12] = tested on: persian speedwell; test: Test Example 5: herbicidal effect by foliage application, plastic box (Table 20, symbol R); assay type: in vivo, Persian speedwell (Veronica persica); details: foliage application, 320 g/ha, three weeks after application
How it was run: as §3

[13] = tested on: Italian ryegrass; test: Test Example 4: herbicidal effect by soil treatment (Table 19, symbol K); assay type: in vivo, Italian ryegrass (Lolium multiflorum); details: amount of applied herbicide 320 g/ha
How it was run: as §1

[14] = tested on: late watergrass; test: Test Example 1: herbicidal activity, application before weed generation under submerged conditions (Table 16, symbol A); assay type: in vivo, late watergrass (Echinochloa oryzicola); details: amount of applied herbicide 320 g/ha
How it was run: as §2

[15] = tested on: Chinese sprangletop; test: Test Example 3: herbicidal effect by foliage application, Wagner pot (Table 18, symbol D); assay type: in vivo, chinese sprangletop (Leptochloa chinensis); details: 320 g/ha
How it was run: as §4

[16] = tested on: wild oat; test: Test Example 5: herbicidal effect by foliage application, plastic box (Table 20, symbol I); assay type: in vivo, wild oat (Avena fatua); details: foliage application, 320 g/ha, three weeks after application
How it was run: as §3

[17] = tested on: persian speedwell; test: Test Example 4: herbicidal effect by soil treatment (Table 19, symbol R); assay type: in vivo, Persian speedwell (Veronica persica); details: amount of applied herbicide 320 g/ha
How it was run: as §1

[18] = tested on: redroot pigweed; test: Test Example 5: herbicidal effect by foliage application, plastic box (Table 20, symbol N); assay type: in vivo, redroot pigweed (Amaranthus retroflexus); details: foliage application, 320 g/ha, three weeks after application
How it was run: as §3

[19] = tested on: blackgrass; test: Test Example 4: herbicidal effect by soil treatment (Table 19, symbol J); assay type: in vivo, blackgrass (Alopecurus myosuroides); details: amount of applied herbicide 320 g/ha
How it was run: as §1

[20] = tested on: windgrass; test: Test Example 5: herbicidal effect by foliage application, plastic box (Table 20, symbol L); assay type: in vivo, windgrass (Apera spica-venti); details: foliage application, 320 g/ha, three weeks after application
How it was run: as §3

[21] = tested on: rice flat sedge; test: Test Example 3: herbicidal effect by foliage application, Wagner pot (Table 18, symbol E); assay type: in vivo, rice flat sedge (Cyperus iria); details: 320 g/ha
How it was run: as §4

[22] = tested on: lambsquarters; test: Test Example 5: herbicidal effect by foliage application, plastic box (Table 20, symbol O); assay type: in vivo, lambsquarters (Chenopodium album); details: foliage application, 320 g/ha, three weeks after application
How it was run: as §3

[23] = tested on: barnyard grass; test: Test Example 5: herbicidal effect by foliage application, plastic box (Table 20, symbol H); assay type: in vivo, barnyard grass (Echinochloa crus-galli); details: foliage application, 320 g/ha, three weeks after application
How it was run: as §3

[24] = tested on: Italian ryegrass; test: Test Example 5: herbicidal effect by foliage application, plastic box (Table 20, symbol K); assay type: in vivo, Italian ryegrass (Lolium multiflorum); details: foliage application, 320 g/ha, three weeks after application
How it was run: as §3

[25] = tested on: false cleavers; test: Test Example 4: herbicidal effect by soil treatment (Table 19, symbol Q); assay type: in vivo, false cleavers (Galium spurium); details: amount of applied herbicide 320 g/ha
How it was run: as §1

[26] = tested on: Japanese bulrush; test: Test Example 1: herbicidal activity, application before weed generation under submerged conditions (Table 16, symbol B); assay type: in vivo, Japanese bulrush (Schoenoplectus juncoides); details: amount of applied herbicide 320 g/ha
How it was run: as §2

[27] = tested on: velvetleaf; test: Test Example 5: herbicidal effect by foliage application, plastic box (Table 20, symbol M); assay type: in vivo, velvetleaf (Abutilon theophrasti); details: foliage application, 320 g/ha, three weeks after application
How it was run: as §3

[28] = tested on: windgrass; test: Test Example 4: herbicidal effect by soil treatment (Table 19, symbol L); assay type: in vivo, windgrass (Apera spica-venti); details: amount of applied herbicide 320 g/ha
How it was run: as §1

[29] = tested on: chickweed; test: Test Example 4: herbicidal effect by soil treatment (Table 19, symbol P); assay type: in vivo, common chickweed (Stellaria media); details: amount of applied herbicide 320 g/ha
How it was run: as §1

[30] = tested on: southern crabgrass; test: Test Example 5: herbicidal effect by foliage application, plastic box (Table 20, symbol F); assay type: in vivo, southern crabgrass (Digitaria ciliaris); details: foliage application, 320 g/ha, three weeks after application
How it was run: as §3

[31] = tested on: lambsquarters; test: Test Example 4: herbicidal effect by soil treatment (Table 19, symbol O); assay type: in vivo, lambsquarters (Chenopodium album); details: amount of applied herbicide 320 g/ha
How it was run: as §1

SMILES	Herbicidal effect, C: oval-leafed pondweed [3]	P: chickweed, herbicidal effect grade [4]	J: blackgrass, herbicidal effect grade [5]	G: green foxtail, herbicidal effect grade [10]	herbicidal effect on barnyard grass (H) [11]	R: persian speedwell, herbicidal effect grade [12]	Herbicidal effect, A: late watergrass [14]	herbicidal effect on Chinese sprangletop (D) [15]	I: wild oat, herbicidal effect grade [16]	N: redroot pigweed, herbicidal effect grade [18]	L: windgrass, herbicidal effect grade [20]	herbicidal effect on rice flat sedge (E) [21]	O: lambsquarters, herbicidal effect grade [22]	H: barnyard grass, herbicidal effect grade [23]	K: Italian ryegrass, herbicidal effect grade [24]	Herbicidal effect, B: Japanese bulrush [26]	M: velvetleaf, herbicidal effect grade [27]	F: southern crabgrass, herbicidal effect grade [30]	further results
COc1ccccc1-c1sc2cc(Cl)ccc2c1-c1c(O)c(C)nn(C)c1=O [3-035]	0 (Herbicidal rate of 5% or less (almost no effect))	5 (Herbicidal rate of 90% or more (almost completely withered))	3 (Herbicidal rate of 40% or more and less than 70%)	5 (Herbicidal rate of 90% or more (almost completely withered))	4 (Herbicidal rate of 70% or more and less than 90%)	5 (Herbicidal rate of 90% or more (almost completely withered))	3 (Herbicidal rate of 40% or more and less than 70%)	3 (Herbicidal rate of 40% or more and less than 70%)	3 (Herbicidal rate of 40% or more and less than 70%)	4 (Herbicidal rate of 70% or more and less than 90%)	4 (Herbicidal rate of 70% or more and less than 90%)	5 (Herbicidal rate of 90% or more (almost completely withered))	4 (Herbicidal rate of 70% or more and less than 90%)	4 (Herbicidal rate of 70% or more and less than 90%)	3 (Herbicidal rate of 40% or more and less than 70%)	3 (Herbicidal rate of 40% or more and less than 70%)	4 (Herbicidal rate of 70% or more and less than 90%)	4 (Herbicidal rate of 70% or more and less than 90%)	F: southern crabgrass, herbicidal effect grade [1]: 3 (Herbicidal rate of 40% or more and less than 70%); N: redroot pigweed, herbicidal effect grade [2]: 4 (Herbicidal rate of 70% or more and less than 90%); G: green foxtail, herbicidal effect grade [6]: 4 (Herbicidal rate of 70% or more and less than 90%); H: barnyard grass, herbicidal effect grade [7]: 5 (Herbicidal rate of 90% or more (almost completely withered)); I: wild oat, herbicidal effect grade [8]: 0 (Herbicidal rate of 5% or less (almost no effect)); M: velvetleaf, herbicidal effect grade [9]: 3 (Herbicidal rate of 40% or more and less than 70%); K: Italian ryegrass, herbicidal effect grade [13]: 2 (Herbicidal rate of 20% or more and less than 40%); R: persian speedwell, herbicidal effect grade [17]: 1 (Herbicidal rate of 5% or more and less than 20%); J: blackgrass, herbicidal effect grade [19]: 3 (Herbicidal rate of 40% or more and less than 70%); Q: false cleavers, herbicidal effect grade [25]: 3 (Herbicidal rate of 40% or more and less than 70%); L: windgrass, herbicidal effect grade [28]: 0 (Herbicidal rate of 5% or less (almost no effect)); P: chickweed, herbicidal effect grade [29]: 4 (Herbicidal rate of 70% or more and less than 90%); O: lambsquarters, herbicidal effect grade [31]: 5 (Herbicidal rate of 90% or more (almost completely withered))
Cc1nn(C)c(=O)c(-c2c(-c3ccc(OC(F)F)cc3)sc3cc(F)ccc23)c1O [3-141]	0 (Herbicidal rate of 5% or less (almost no effect))	5 (Herbicidal rate of 90% or more (almost completely withered))	4 (Herbicidal rate of 70% or more and less than 90%)	5 (Herbicidal rate of 90% or more (almost completely withered))	5 (Herbicidal rate of 90% or more (almost completely withered))	5 (Herbicidal rate of 90% or more (almost completely withered))	3 (Herbicidal rate of 40% or more and less than 70%)	2 (Herbicidal rate of 20% or more and less than 40%)	1 (Herbicidal rate of 5% or more and less than 20%)	5 (Herbicidal rate of 90% or more (almost completely withered))	5 (Herbicidal rate of 90% or more (almost completely withered))	5 (Herbicidal rate of 90% or more (almost completely withered))	5 (Herbicidal rate of 90% or more (almost completely withered))	4 (Herbicidal rate of 70% or more and less than 90%)	5 (Herbicidal rate of 90% or more (almost completely withered))	0 (Herbicidal rate of 5% or less (almost no effect))	5 (Herbicidal rate of 90% or more (almost completely withered))	0 (Herbicidal rate of 5% or less (almost no effect))	Herbicidal effect by soil treatment, F: southern crabgrass [1]: 0 (Herbicidal rate of 5% or less (almost no effect)); Herbicidal effect by soil treatment, N: redroot pigweed [2]: 5 (Herbicidal rate of 90% or more (almost completely withered)); Herbicidal effect by soil treatment, G: green foxtail [6]: 1 (Herbicidal rate of 5% or more and less than 20%); Herbicidal effect by soil treatment, H: barnyard grass [7]: 3 (Herbicidal rate of 40% or more and less than 70%); Herbicidal effect by soil treatment, I: wild oat [8]: 0 (Herbicidal rate of 5% or less (almost no effect)); Herbicidal effect by soil treatment, M: velvetleaf [9]: 3 (Herbicidal rate of 40% or more and less than 70%); Herbicidal effect by soil treatment, K: Italian ryegrass [13]: 3 (Herbicidal rate of 40% or more and less than 70%); Herbicidal effect by soil treatment, R: persian speedwell [17]: 4 (Herbicidal rate of 70% or more and less than 90%); Herbicidal effect by soil treatment, J: blackgrass [19]: 3 (Herbicidal rate of 40% or more and less than 70%); Herbicidal effect by soil treatment, Q: false cleavers [25]: 0 (Herbicidal rate of 5% or less (almost no effect)); Herbicidal effect by soil treatment, L: windgrass [28]: 3 (Herbicidal rate of 40% or more and less than 70%); Herbicidal effect by soil treatment, P: chickweed [29]: 3 (Herbicidal rate of 40% or more and less than 70%); Herbicidal effect by soil treatment, O: lambsquarters [31]: 5 (Herbicidal rate of 90% or more (almost completely withered))
